From ChEMBL document CHEMBL2203039, “Azabenzthiazole inhibitors of leukotriene A₄ hydrolase” (Bioorg Med Chem Lett, 2012)

Target: Voltage-gated inwardly rectifying potassium channel KCNH2 (Homo sapiens, UniProt Q12809)
Test: Inhibition of dofetilide binding to human ERG by radioligand binding assay

Voltage-gated inwardly rectifying potassium channel KCNH2, sequence (Q12809 whole entry): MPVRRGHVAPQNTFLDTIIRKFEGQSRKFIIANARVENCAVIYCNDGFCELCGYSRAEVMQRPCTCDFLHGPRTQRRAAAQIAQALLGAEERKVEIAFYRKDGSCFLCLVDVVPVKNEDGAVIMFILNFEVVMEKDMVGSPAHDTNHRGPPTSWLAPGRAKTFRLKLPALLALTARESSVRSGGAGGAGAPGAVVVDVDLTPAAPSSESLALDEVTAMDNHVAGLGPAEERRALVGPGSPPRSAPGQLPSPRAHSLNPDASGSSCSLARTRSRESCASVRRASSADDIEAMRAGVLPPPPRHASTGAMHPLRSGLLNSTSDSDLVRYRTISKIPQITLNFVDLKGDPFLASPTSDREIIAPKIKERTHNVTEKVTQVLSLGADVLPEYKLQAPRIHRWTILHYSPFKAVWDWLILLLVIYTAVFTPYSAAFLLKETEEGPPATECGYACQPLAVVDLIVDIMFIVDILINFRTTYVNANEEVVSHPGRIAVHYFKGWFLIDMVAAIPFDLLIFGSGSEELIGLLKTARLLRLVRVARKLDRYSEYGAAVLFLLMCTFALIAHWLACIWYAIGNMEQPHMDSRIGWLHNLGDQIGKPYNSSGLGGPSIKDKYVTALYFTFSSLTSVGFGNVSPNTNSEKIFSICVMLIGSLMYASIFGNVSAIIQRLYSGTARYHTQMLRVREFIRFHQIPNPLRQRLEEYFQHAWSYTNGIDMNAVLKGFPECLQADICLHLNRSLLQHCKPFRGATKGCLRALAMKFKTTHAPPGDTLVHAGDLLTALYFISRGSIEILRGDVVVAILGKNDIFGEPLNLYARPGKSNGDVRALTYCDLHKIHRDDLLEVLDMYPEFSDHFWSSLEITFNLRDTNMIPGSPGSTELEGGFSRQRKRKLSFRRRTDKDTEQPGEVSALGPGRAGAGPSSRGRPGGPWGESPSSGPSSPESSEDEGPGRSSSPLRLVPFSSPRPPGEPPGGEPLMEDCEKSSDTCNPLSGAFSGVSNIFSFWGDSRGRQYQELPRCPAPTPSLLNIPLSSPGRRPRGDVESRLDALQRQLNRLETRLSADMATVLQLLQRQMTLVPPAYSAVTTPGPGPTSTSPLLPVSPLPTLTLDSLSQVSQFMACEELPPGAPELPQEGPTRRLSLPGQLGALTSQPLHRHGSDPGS

Work on `O=C1CCCN1C1CCN(CCc2ccc(Oc3nc4ncccc4s3)cc2)CC1` yielded an IC50 greater than 10 µM.
